Patent US6953577B2, “Human methionine aminopeptidase type 3” (Pharmacia Corporation, priority 1999, dated 2005)

Experiments:
[1] = target: T1, recombinant human MetAP-3 (Homo sapiens, UniProt Q6UB28); test: Methionine aminopeptidase activity assay (methionine release from tripeptide, coupled L-amino acid oxidase/Amplex Red); assay type: biochemical; details: for Cleaved / Vmax: tripeptide as substrate of recombinant human MetAP-3
T1 construct: The coding region of hMetAP-3 was also cloned into the EcoRI/HindIII sites of the pET43a vector and expressed as a fusion protein; NusA (N, cleaved yes); 6xHis (N, cleaved yes); made in house; host or cells: E. coli Tuner (DE3)plysS, pET43a
Experimental: (§1) Hydrogen peroxide, produced by the L-amino acid oxidase reaction, was measured by monitoring the formation of resorufin from Amplex Red in a reaction catalyzed by of horseradish peroxidase. […] The reaction was performed in a 96-well plate format at ambient temperature using the following assay buffer: 20 mM HEPES-Na pH 7.5, 100 mM NaCl, 0.1 mM CoCl2 containing 100 μM Amplex Red, 0.15 U/ml L-amino acid oxidase, 0.5 U/ml horseradish peroxidase.
(§2) The ability of fumagillin to inhibit each of the recombinant human MetAPs was determined by adding 0.6 nM-500 μM fumagillin at the start of the reaction. The IC50 values were determined under conditions in which enzyme concentration and reaction time were linear.

[2] = target: type-1 enzyme (MetAP-1) (Homo sapiens, UniProt P53582); details: cited from earlier work
[3] = target: T2, MetAP-2 (Homo sapiens, UniProt P50579); test: Methionine aminopeptidase activity assay (methionine release from tripeptide, coupled L-amino acid oxidase/Amplex Red)
Experimental: as §1, §2
Target sequence in this assay (P50579 whole entry): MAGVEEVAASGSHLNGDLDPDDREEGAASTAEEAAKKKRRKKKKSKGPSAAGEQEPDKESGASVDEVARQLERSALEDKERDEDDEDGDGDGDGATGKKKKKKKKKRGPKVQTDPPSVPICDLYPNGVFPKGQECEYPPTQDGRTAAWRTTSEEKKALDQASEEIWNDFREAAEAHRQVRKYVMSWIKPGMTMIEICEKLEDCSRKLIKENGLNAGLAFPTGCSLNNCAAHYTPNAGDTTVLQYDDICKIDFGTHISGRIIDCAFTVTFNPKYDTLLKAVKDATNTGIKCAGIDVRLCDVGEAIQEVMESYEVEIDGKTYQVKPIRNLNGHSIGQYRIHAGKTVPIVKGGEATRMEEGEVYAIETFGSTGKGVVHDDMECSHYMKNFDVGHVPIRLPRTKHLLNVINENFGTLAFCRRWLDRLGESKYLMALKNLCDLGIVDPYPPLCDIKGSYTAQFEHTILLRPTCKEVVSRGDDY

[4] = target: recombinant human MetAP-1 (Homo sapiens, UniProt P53582); test: as above
Experimental: as §1, §2

[5] = test system: endothelial cell proliferation; details: cited from earlier work
[6] = target: T2, MetAP-2; details: cited from earlier work
Target sequence in this assay (P50579 whole entry, species assumed): as the sequence (P50579 whole entry) above

[7] = in vivo, cited from earlier work

T1 sequence (Q6UB28 20-335): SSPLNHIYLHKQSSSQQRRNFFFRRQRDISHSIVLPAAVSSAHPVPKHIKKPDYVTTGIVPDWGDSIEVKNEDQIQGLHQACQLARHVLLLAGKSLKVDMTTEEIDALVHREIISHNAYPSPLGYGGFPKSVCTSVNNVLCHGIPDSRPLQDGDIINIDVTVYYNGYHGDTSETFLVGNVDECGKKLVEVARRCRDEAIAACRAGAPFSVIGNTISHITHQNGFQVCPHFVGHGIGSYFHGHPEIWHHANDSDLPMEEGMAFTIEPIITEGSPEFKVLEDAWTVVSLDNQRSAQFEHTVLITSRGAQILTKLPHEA

| Compound | Cleaved [1] | Vmax [1] [Abs × 1000/min] | Inhibition of type-1 enzyme (in words) [2] | Binding and inhibition of MetAP-2 (in words) [6] | other results |
| --- | --- | --- | --- | --- | --- |
| GGG: synthesized tripeptide evaluated as substrate for MetAP-3 | No | 0.7 |  |  |  |
| CO[C@@H]1C(=O)CC[C@]2(CO2)[C@@]1(O)[C@@]1(C)O[C@@H]1CC=C(C)C [ovalicin] |  |  | but not the type-1 enzyme |  |  |
| MGG: synthesized tripeptide evaluated as substrate for MetAP-3 | cleaved and Yes | 134 |  |  | Activity with MGG relative to MAS as substrate [1]: twice as high |
| MEG: synthesized tripeptide evaluated as substrate for MetAP-3 | cannot cleave and No | 1.1 |  |  |  |
| CO[C@@H]1[C@H](OC(=O)/C=C/C=C/C=C/C=C/C(=O)O)CC[C@]2(CO2)[C@H]1[C@@]1(C)O[C@@H]1CC=C(C)C [Fumagillin, fumagillin] |  |  | but not the type-1 enzyme | irreversibly bind and potently inhibit | IC50 [3]: 0.005 µM; IC50 [4]: 33 µM; Inhibition of MetAP-3 by fumagillin (in words) [1]: not inhibited by fumagillin; IC50 ([1]; read-out: Fumagillin IC50): > 500 µM; Inhibition of endothelial cell proliferation (in words) [5]: potent inhibitor of endothelial cell proliferation |
| CO[C@@H]1[C@H](OC(=O)NC(=O)CCl)CC[C@]2(CO2)[C@H]1[C@@]1(C)O[C@@H]1CC=C(C)C [TNP-470] |  |  | but not the type-1 enzyme | irreversibly bind and potently inhibit | Potency relative to fumagillin [5]: 50 fold; Oral availability (in words) ([7]; po): lack of oral availability; Toxicity (in words) [7]: dose-limiting neurotoxicity |
